In EP0646315B1, “Novel compositions containing an auxin transport inhibitor and another herbicide” (Novartis AG, priority 1993, dated 1995):

Experiments:
velvetleaf [1] = assay: Field trial, post-emergent tank mix in field corn; format: in vivo, Abutilon theophrasti; settings: post-emergent 35 days after seeding, weeds 41 to 89 cm, foliar broadcast tank mix, (z) 0.275 kg/ha, (a) 0.011 kg/ha, Aquagene 0.9 l/ha where named
Protocol: (§1) A field trial was conducted against velvetleaf and pigweed in field corn. Application was post-emergent 35 days after seeding with weeds at a height of 41 to 89 cm. Application was of tank mixed formulation by foliar applied broadcast treatment. Compound (a) above was tank mixed as is. Compound (z) above was tank mixed in the form of a 0.5 kg/l s.c. commercially available under the trademark […]®. Aquagene is a commercially available surfactant, (Universal Coop Incorporated, Minneapolis, MN).

pigweed [2] = assay: Field trial, post-emergent tank mix in field corn; format: in vivo, Amaranthus sp.; settings: post-emergent 35 days after seeding, weeds 41 to 89 cm, foliar broadcast tank mix, (z) 0.275 kg/ha, (a) 0.011 kg/ha, Aquagene 0.9 l/ha where named
Protocol: as §1

morningglory = assay: Greenhouse test, post-emergence; format: in vivo, Ipomoea sp.; settings: treatment 10 days post-emergence, evaluation 18 days after treatment, (e) 0.01 kg/ha, (z) 0.02 kg/ha, 3 repetitions
Protocol: (§2) A greenhouse test was conducted against velvetleaf, pigweed, morningglory and cocklebur. Treatment was at 10 days post-emergence and evaluation at 18 days after treatment. Compound (e) was formulated as technical a.i. in a mixture of equal parts acetone and water with 1/2% surfactant. Compound (z) was used in the commercially available form […]® herbicide (=480g/L a.i. equivalent) in water with 1/2% surfactant. The tank mixes were applied in a linear spray chamber with 3 repetitions per concentration.

cocklebur = assay: Greenhouse test, post-emergence; format: in vivo, Xanthium strumarium; settings: treatment 10 days post-emergence, evaluation 18 days after treatment, (e) 0.01 kg/ha, (z) 0.02 kg/ha, 3 repetitions
Protocol: as §2

velvetleaf [3] = assay: Greenhouse test, post-emergence; format: in vivo, Abutilon theophrasti; settings: treatment 10 days post-emergence, evaluation 18 days after treatment, (e) 0.01 kg/ha, (z) 0.02 kg/ha, 3 repetitions
Protocol: as §2

pigweed [4] = assay: Greenhouse test, post-emergence; format: in vivo, Amaranthus sp.; settings: treatment 10 days post-emergence, evaluation 18 days after treatment, (e) 0.01 kg/ha, (z) 0.02 kg/ha, 3 repetitions
Protocol: as §2

Compound	% of control Velvetleaf (velvetleaf [1])	% of control Pigweed (pigweed [2])	% control Morningglory (morningglory)	% control Cocklebur (cocklebur)	% control Velvetleaf (velvetleaf [3])	activity at 275 g/ha (velvetleaf [1]; Abutilon theophrasti, 840 h, read-out: % of control Velvetleaf)	% control Pigweed (pigweed [4])	activity at 275 g/ha (pigweed [2]; Amaranthus retroflexus, 840 h, read-out: % of control Pigweed)
2-acetylnicotinic acid 4-(3,5-difluorophenyl)semicarbazone 2-(2-hydroxyethoxy)ethyl-ammonium salt [Compound (a)]	13%	18%						
COc1c(Cl)ccc(Cl)c1C(=O)O [Compound (z), dicamba]			35%	75%	35%	18%	35%	30%
